In the experiment the test system is bacterial quorum sensing reporter inhibition. As to the kind of experiment: blockers of quorum-sensing reporter signal in bacteria – dose response (AID 700).

Calls of active or inactive are those of the source. The rule behind the calls is not given here. Some results are limits rather than exact numbers.

The term IC50 denotes the concentration that gives 50% inhibition.

As to `Cn1c(=O)oc2cc(S(=O)(=O)NCCN3CCN(c4ccccc4F)CC3)ccc21`, the IC50 is > 20 µM (inactive). For `CCc1oc2ccccc2c1C(=O)c1cc(Br)c(O)c(Br)c1`, the IC50 is 0.74 µM. To `CCOc1ccc(NC(=O)C2CCCN(S(=O)(=O)c3c(C)nn(C)c3C)C2)cc1` (stereo unspecified) belongs > 20 µM (inactive). Take `O=C1CS/C(=N\C(=O)N2c3ccccc3Sc3ccccc32)N1`: the concentration for half-maximal inhibition (IC50) was 1.42 µM.

As to `Cc1ccc(Cl)c(Nc2ccccc2C(=O)O)c1Cl`, the concentration for half-maximal inhibition (IC50) is 3.13 µM. Turning to `CCc1c(C)sc(NC(=O)c2cc(C)on2)c1C#N`, the IC50 was > 20 µM (inactive).

On to `COCCn1nnnc1C(c1cc2cc(OC)ccc2[nH]c1=O)N1CCC(Cc2ccccc2)CC1` (stereo unspecified), for which the IC50 is > 20 µM (inactive). In the case of `c1ccc(-c2ccc(C(c3ccccc3)n3ccnc3)cc2)cc1` (stereo unspecified), the IC50 is > 20 µM (inactive). To `O=C(O)CCc1cc(I)c(Oc2ccc(O)c(I)c2)c(I)c1` belongs 1.78 µM; to `CCc1ccc2[nH]c(=O)c(CN(CCCN3CCOCC3)C(=O)Nc3ccc(Cl)cc3)cc2c1`, > 20 µM (inactive). Consider `CCN1CCCC1CN(Cc1cc2c(C)cc(C)cc2[nH]c1=O)C(=O)NC1CCCCC1` (stereo unspecified), for which the IC50 is > 20 µM (inactive).

The values are drawn from PubChem BioAssay AID700 (NMMLSC, 2007).
